According to publication PMC5676038, “MCR-1 Inhibition with Peptide-Conjugated Phosphorodiamidate Morpholino Oligomers Restores Sensitivity to Polymyxin in Escherichia coli” (mBio, 2017):
Positions of bridges follow the written chain, without caps; N, C: chain ends. Non-standard residues stand in square brackets, D forms with d. Residues, ends and D or L forms follow the SMILES beside them. *: point of attachment. X1 = CC[C@H](C)CCCCC(=O)*; Dab = NCC[C@H](N)C(=O)O

Columns and labels:
E. coli MRSN 388634 [1] = experiment: Mouse septicemia model, acute; type: in vivo, BALB/c mice
Method: FIG 3 PPMOs rescue colistin activity in a mouse model of acute septicemia. Female BALB/c mice (7 to 8 weeks old) were infected via intraperitoneal injection with 8e4 CFU of MRSN 388634. At 2 and 6 h postinfection, 0.25 mg/kg colistin sulfate, 100 μg PPMO (~5 mg/kg), or the combination was administered via the i.p. route. Mice were euthanized at 24 h, and organ burden was determined. Numbers of CFU per gram of tissue of the liver (A) and spleen (B) are shown. (C) Morbidity was assessed immediately prior to euthanasia and scored as a maxima of 6 (moribund) and a nadir of 0. Mice that succumbed prior to euthanasia are depicted with the maxima score of 6. The data represent the means and standard errors of the means (SEM) of results from two replicate experiments (n = 4) (n = 8 per group total). n.s., not significant; *, P < 0.05; **, P < 0.01; ***, P < 0.001; ****, P < 0.0001 by Student’s t test, with the Mann-Whitney test used for morbidity.
Animal experiments were approved by the […] at UT Southwestern Medical Center (protocol number 2016-101626). The mouse model of septicemia with PPMO rescue of antibiotic activity was described previously ([10]).
(§1) Briefly, 7- to 8-week-old female BALB/c mice (Jackson Laboratory, Sacramento, CA, USA) were infected intraperitoneally (i.p.) with 8 × 10^4 CFU of E. coli (MRSN 388634) in DPBS with 5% mucin (M1778; Sigma-Aldrich). At 2 and 6 h postinfection, 0.25 mg/kg colistin sulfate, 100 µg PPMO, or the combination was administered i.p. in 100 µl DPBS. Morbidity was assessed at 24 h, immediately prior to euthanasia. Mice were scored from 0 to 6 as follows: 0 for the absence or 1 for the presence of a ruffled coat; 0 for a normal posture, 1 for a hunched posture, and 2 for a prostrate posture; and 0 for nondisturbed movement, 1 for slow movement, 2 for movement after prodding, and 3 for no movement. Mice that succumbed to infection prior to euthanasia were scored as the maxima, 6 (moribund). Spleen and liver were harvested and homogenized in 1 ml DPBS (Omni TH; Omni International, Kennesaw, GA), serially diluted, and plated on blood agar.

E. coli MRSN 388634 [2] = experiment: Mouse septicemia model, survival; type: in vivo, BALB/c mice
Method: FIG 4 PPMOs combined with colistin protect mice from a lethal dose of mcr-1-positive E. coli. Female BALB/c mice (7 to 8 weeks old) were infected via intraperitoneal injection with 1e6 CFU of MRSN 388634. At 2 and 6 h postinfection 0.5 mg/kg colistin sulfate, 100 μg PPMO (~5 mg/kg), or the combination was administered via the i.p. route. Mice were monitored for morbidity, with an assessment scored at a maxima of 6 (moribund; dotted line [b]) and a nadir of 0. The data represent the means and SEM from two replicate experiments (n = 4) (n = 8 per group total). (A to C) Survival curve (A), morbidity scoring (B), and weight loss measurement (C) over the course of 5 days. ****, P < 0.0001 by the Mantel-Cox log-rank test.
as §1
Mice were infected and treated as described above except that the inoculum was increased to 1 × 10^6 CFU and the colistin dose was increased to 0.5 mg/kg. Mice were weighed, and morbidity was assessed every 6 h for the first 36 h and then every 12 h out to 120 h (5 days). Mice that reached the moribund state were euthanized.

Row | Compound | burden in the liver and morbidity at 24 h, colistin alone (E. coli MRSN 388634 [1]; BALB/c, 8 × 10^4 CFU i.p., colistin sulfate 0.25 mg/kg i.p. at 2 and 6 h, n = 8) | effect on burden or morbidity at 24 h, PPMO alone (E. coli MRSN 388634 [1]; BALB/c, 8 × 10^4 CFU i.p., PPMO 100 μg (~5 mg/kg) i.p. at 2 and 6 h postinfection, n = 8) | decrease in the number of CFU, combination with colistin (E. coli MRSN 388634 [1]; PPMO ~5 mg/kg + colistin sulfate 0.25 mg/kg i.p. at 2 and 6 h, 24 h) | liver burden and morbidity, combination with colistin, compared to Ctrl PPMO and colistin (E. coli MRSN 388634 [1]; PPMO ~5 mg/kg + colistin sulfate 0.25 mg/kg i.p. at 2 and 6 h, 24 h, n = 8) | numbers of CFU in liver and spleen at 24 h, combination with colistin, compared to DPBS control (E. coli MRSN 388634 [1]; PPMO ~5 mg/kg + colistin sulfate 0.25 mg/kg i.p. at 2 and 6 h, n = 8) | survival to the 5-day endpoint, combination with colistin (E. coli MRSN 388634 [2]; BALB/c, 1 × 10^6 CFU i.p., PPMO 100 μg (~5 mg/kg) + colistin sulfate 0.5 mg/kg i.p. at 2 and 6 h, n = 6/8) [%] | body weight course, combination with colistin (E. coli MRSN 388634 [2]; PPMO ~5 mg/kg + colistin sulfate 0.5 mg/kg, over 5 days) | morbidity course, combination with colistin (E. coli MRSN 388634 [2]; PPMO ~5 mg/kg + colistin sulfate 0.5 mg/kg, score 0 to 6)
1 | CC[C@H](C)CCCCC(=O)N[C@@H](CCN)C(=O)N[C@H](C(=O)N[C@@H](CCN)C(=O)N[C@H]1CCNC(=O)[C@H]([C@@H](C)O)NC(=O)[C@H](CCN)NC(=O)[C@H](CCN)NC(=O)[C@H](CC(C)C)NC(=O)[C@@H](CC(C)C)NC(=O)[C@H](CCN)NC1=O)[C@@H](C)O [Colistin, colistin, reference compound] (X1-[Dab]T[Dab][Dab][Dab][dL]L[Dab][Dab]T; lactam 4-C (inferred); N-terminus assumed) | significant reduction | – | – | – | – | – | – | –
2 | TCAAAGAGTAC [Mcr1-0545, (RXR)4XB 3′-end-conjugated PPMO targeted to mcr-1 mRNA, positions −8 to +3; theone tested in mice] | – | Neither the MCR-1 nor the Ctrl PPMO alone had an effect | ~ 1 log | significantly less | significant reduction | 75 | continued to lose weight over the course of the experiment | increased initially, but the mice began to recover by 24 h
